Laboratory results from US20040266885A1, “Wood preservative compositions” (priority 2001, published 2004).
Several values for one entry are separate records, joined by “and”; a condition that tells them apart may be missing. Equal values may be shown once. Entries after “also recorded” stand apart in the source; their conditions may differ.

Experiments:
C. formosanus = assay: Laboratory termite test, modified ASTM 3345-74, soil/sand culture, NaOH carrier, blocks not leached; type: in vivo; set-up: Termite Attack Rating / Mean Rating (termite attack): scale not given here; details: for Mean Rating (termite attack): mean of 4 specimens; for Mean Rating (termite attack) / Termite Attack Rating: 4 weeks soil/sand culture; for Termite Attack Rating: single specimen; for Termite Attack Rating: key: Score 0: No attack; Score 1: Attempted attack; Score 2: Slight attack; Score 3: Average attack; Score 4: Strong attack
Procedure: A further experiment was undertaken according to the modified ASTM 3345-74 test detailed in Example 2 with the following 6 changes to the protocol:
1. The solutions tested were as follows:
2. The incubation substrate was a soil/sand mixture (1:1) to which had been added 75 ml of de-ionised water. This substrate was chosen as being more representative of the laboratory conditions under which the wild caught termites (C. formosanus) were maintained.
3. The treated timber samples were positioned on plastic mesh on top of the soil substrate. This method of placement is that used in European Standard EN 117 and is more representative of the feeding conditions of the wild caught termites maintained in the laboratory.
4. 250 termites were used in each incubation vessel.
5. The wood block specimens were not subjected to a leaching process.
6. Evidence of termite tunneling activity and mortality was determined at completion of the incubation period only (4 weeks) and no examinations were undertaken for surface activity.

Macrotermes natalensis = assay: Field exposure of TBBA treated timber samples to an active termite population (based on EN 117); type: in vivo; details: ethanol carrier, 54 days field exposure; for Mean Termite Attack Score (0-4): SD in parenthesis, 3 replicates; for highest termite attack score out of 3 replicates: key: Score 0: No attack; Score 1: Attempted attack; Score 2: Slight attack; Score 3: Average attack; Score 4: Strong attack
Text: The termiticidal and/or termite repellency effect of TBBA was examined by field exposure of TBBA treated timber samples to an active population of termites (Macrotermes natalensis). Much of the test detail (timber specimen species, dimensions, preservative impregnation method, scoring system etc.) was based on the European laboratory standard EN 117. This standard is used to define the toxic values of wood preservative formulations against wood destroying termites of the species Reticulitermes santonensis.
The TBBA active was formulated as a solvent-borne product for the test. (ethanol carrier). The precise preservative solutions used were 0% (ethanol only), 1% TBBA, 3% TBBA, 5% TBBA, 7% TBBA and 10% TBBA (all w/w).
AU wood block specimens were of Scots pine sapwood (Pinus sylvestris) with dimensions of 50×25×15 mm. All the test blocks were vacuum impregnated with TBBA according to the method of EN 117. Distribution of the treated blocks in the test was as follows:
TS Specimens: to determine the efficacy of the TBBA active (at different concentrations) against termite attack. SCS Specimens: to confirm absence of a termiticidal effect by the TBBA carrier (ethanol). UCS Specimens: to establish the virulence of the field population of termites.
The termite field site was established in Ginginglovu (Zululand, South Africa). The soil type of the area was a Hutton Bush Veldt soil (sandy loam soil). The site was situated within 10 m of an active termite mound on a raised flat platform of soil established some 5 cm above ground level. The test specimens were randomly positioned on this platform and carefully covered with a waterproof flat plastic roof. This plastic roof was covered with soil to allow temperature and humidity conditions within the test zone to remain representative of the locale. The test specimens were left in-situ for a period of 54 days then scored for termite attack according the system defined in European standard EN 117 as follows:
Score 1: Attempted attack

In the case of CC(C)(c1cc(Br)c(O)c(Br)c1)c1cc(Br)c(O)c(Br)c1 [TBBA, Tetrabromobisphenol A], the “termiticidal and termite repellent activity (conclusion)” value (C. formosanus) is reported as “significant termiticidal and termite repellent activity”, the “termite survival / mortality at the end of the test period” value (C. formosanus; 4 weeks) is reported as “the majority of the termites were still active at the end of the test period” and the “Tunneling Activity” value (C. formosanus; 4 weeks, solution conc. 1%) is reported as “Yes”. For the same compound, the “Visible Mortality” value (C. formosanus; 4 weeks, solution conc. 1%) was “No”, the “Tunneling Activity” value (C. formosanus; 4 weeks, solution conc. 3%) was “Yes” and the “Visible Mortality” value (C. formosanus; 4 weeks, solution conc. 3%) was 1-33%. The “Tunneling Activity” value (C. formosanus; 4 weeks, solution conc. 5%) was “Yes”, the “Visible Mortality” value (C. formosanus; 4 weeks, solution conc. 5%) was 1-33% and the “Tunneling Activity” value (C. formosanus; 4 weeks, solution conc. 7%) was “Yes”. For the same compound, the “Visible Mortality” value (C. formosanus; 4 weeks, solution conc. 7%) was 1-33%, the “Tunneling Activity” value (C. formosanus; 4 weeks, solution conc. 10%) was “Yes” and the “Visible Mortality” value (C. formosanus; 4 weeks, solution conc. 10%) was 1-33%. For the same compound, the “prevention of termite attack / restriction of termite damage” value (C. formosanus; all concentrations used (1-10%), 4 weeks) was “significant attack was prevented by all concentrations; also recorded: a very significant effect in restricting termite damage”, the “toxic value, upper (lowest concentration which protects the wood)” value (C. formosanus; mean loading, solution concentration 3% (TBBF) or 1%, not leached) was 7.27 kg/m^3 and the “Mean Rating (termite attack)” value (C. formosanus; solution conc. 1%) was 1.00. For the same compound, the “Termite Attack Rating” value (C. formosanus; solution conc. 1%) was 1, the “Mean Rating (termite attack)” value (C. formosanus; solution conc. 3%) was 1.00 and the “Termite Attack Rating” value (C. formosanus; solution conc. 3%) was 1. For the same compound, the “Mean Rating (termite attack)” value (C. formosanus; solution conc. 5%) was 1.00, the “Termite Attack Rating” value (C. formosanus; solution conc. 5%) was 1 and the “Mean Rating (termite attack)” value (C. formosanus; solution conc. 7%) was 0.75. The “Termite Attack Rating” value (C. formosanus; solution conc. 7%) was 1 and 0, the “Mean Rating (termite attack)” value (C. formosanus; solution conc. 10%) was 1.00 and the “Termite Attack Rating” value (C. formosanus; solution conc. 10%) was 1. For the same compound, the “repellent effect (soil covering of test specimens)” value (C. formosanus; specimens treated with 5, 7 and 10% solutions only partially soil covered) was “acting as a repellent throughout the trial period”, the “Mean Termite Attack Score (0-4)” value (Macrotermes natalensis; 1% TBBA (w/w)) was 0.00 (0.00) and the “highest termite attack score out of 3 replicates” value (shortened to “highest termite attack score out”) (Macrotermes natalensis; 1% TBBA) was 0. The “Mean Termite Attack Score (0-4)” value (Macrotermes natalensis; 3% TBBA (w/w)) was 0.00 (0.00), the “highest termite attack score out” value (Macrotermes natalensis; 3% TBBA) was 0 and the “Mean Termite Attack Score (0-4)” value (Macrotermes natalensis; 5% TBBA (w/w)) was 0.00 (0.00). The “highest termite attack score out” value (Macrotermes natalensis; 5% TBBA) was 0, the “Mean Termite Attack Score (0-4)” value (Macrotermes natalensis; 7% TBBA (w/w)) was 0.33 (0.58) and the “highest termite attack score out” value (Macrotermes natalensis; 7% TBBA) was 1. The “Mean Termite Attack Score (0-4)” value (Macrotermes natalensis; 10% TBBA (w/w)) was 0.00 (0.00) and the “highest termite attack score out” value (Macrotermes natalensis; 10% TBBA) was 0.
